# Test results: paper PMC4575030 (PLoS ONE, 2015)
# Where a name gives a salt, the structure may show the parent alone. Read-outs that look alike come from different tables or passages of the source.
# Assays:
# naïve rats = assay: Open field activity (basic movement); type: in vivo, rat; conditions: formalin-naïve rats
# Method: Basic movement was measured using the Photobeam Activity System Open Field (San Diego Instruments, San Diego, CA) equipped with 48 infrared photocell emitters and detectors. Photobeams used to measure vertical movement were positioned 14 cm above the test chamber floor. Each testing chamber was made of Plexiglas (41 x 41 x 36 cm) and was devoid of any bedding. At the beginning of the test session, each animal was placed in a separate testing chamber and the room lights were turned off. Basic movement was measured for 30 minutes.
# [1] = In vitro plasma protein binding; type: in vitro ADME
# hNav1.7 = target: T1, hNav1.7 (Homo sapiens, UniProt Q15858); assay: Manual whole cell patch clamp electrophysiology on HEK 293 cells stably expressing hNav1.7; type: cell-based
# T1 construct: expressed in transfected cells; host or cells: HEK 293
# T1 sequence (Q15858 whole entry): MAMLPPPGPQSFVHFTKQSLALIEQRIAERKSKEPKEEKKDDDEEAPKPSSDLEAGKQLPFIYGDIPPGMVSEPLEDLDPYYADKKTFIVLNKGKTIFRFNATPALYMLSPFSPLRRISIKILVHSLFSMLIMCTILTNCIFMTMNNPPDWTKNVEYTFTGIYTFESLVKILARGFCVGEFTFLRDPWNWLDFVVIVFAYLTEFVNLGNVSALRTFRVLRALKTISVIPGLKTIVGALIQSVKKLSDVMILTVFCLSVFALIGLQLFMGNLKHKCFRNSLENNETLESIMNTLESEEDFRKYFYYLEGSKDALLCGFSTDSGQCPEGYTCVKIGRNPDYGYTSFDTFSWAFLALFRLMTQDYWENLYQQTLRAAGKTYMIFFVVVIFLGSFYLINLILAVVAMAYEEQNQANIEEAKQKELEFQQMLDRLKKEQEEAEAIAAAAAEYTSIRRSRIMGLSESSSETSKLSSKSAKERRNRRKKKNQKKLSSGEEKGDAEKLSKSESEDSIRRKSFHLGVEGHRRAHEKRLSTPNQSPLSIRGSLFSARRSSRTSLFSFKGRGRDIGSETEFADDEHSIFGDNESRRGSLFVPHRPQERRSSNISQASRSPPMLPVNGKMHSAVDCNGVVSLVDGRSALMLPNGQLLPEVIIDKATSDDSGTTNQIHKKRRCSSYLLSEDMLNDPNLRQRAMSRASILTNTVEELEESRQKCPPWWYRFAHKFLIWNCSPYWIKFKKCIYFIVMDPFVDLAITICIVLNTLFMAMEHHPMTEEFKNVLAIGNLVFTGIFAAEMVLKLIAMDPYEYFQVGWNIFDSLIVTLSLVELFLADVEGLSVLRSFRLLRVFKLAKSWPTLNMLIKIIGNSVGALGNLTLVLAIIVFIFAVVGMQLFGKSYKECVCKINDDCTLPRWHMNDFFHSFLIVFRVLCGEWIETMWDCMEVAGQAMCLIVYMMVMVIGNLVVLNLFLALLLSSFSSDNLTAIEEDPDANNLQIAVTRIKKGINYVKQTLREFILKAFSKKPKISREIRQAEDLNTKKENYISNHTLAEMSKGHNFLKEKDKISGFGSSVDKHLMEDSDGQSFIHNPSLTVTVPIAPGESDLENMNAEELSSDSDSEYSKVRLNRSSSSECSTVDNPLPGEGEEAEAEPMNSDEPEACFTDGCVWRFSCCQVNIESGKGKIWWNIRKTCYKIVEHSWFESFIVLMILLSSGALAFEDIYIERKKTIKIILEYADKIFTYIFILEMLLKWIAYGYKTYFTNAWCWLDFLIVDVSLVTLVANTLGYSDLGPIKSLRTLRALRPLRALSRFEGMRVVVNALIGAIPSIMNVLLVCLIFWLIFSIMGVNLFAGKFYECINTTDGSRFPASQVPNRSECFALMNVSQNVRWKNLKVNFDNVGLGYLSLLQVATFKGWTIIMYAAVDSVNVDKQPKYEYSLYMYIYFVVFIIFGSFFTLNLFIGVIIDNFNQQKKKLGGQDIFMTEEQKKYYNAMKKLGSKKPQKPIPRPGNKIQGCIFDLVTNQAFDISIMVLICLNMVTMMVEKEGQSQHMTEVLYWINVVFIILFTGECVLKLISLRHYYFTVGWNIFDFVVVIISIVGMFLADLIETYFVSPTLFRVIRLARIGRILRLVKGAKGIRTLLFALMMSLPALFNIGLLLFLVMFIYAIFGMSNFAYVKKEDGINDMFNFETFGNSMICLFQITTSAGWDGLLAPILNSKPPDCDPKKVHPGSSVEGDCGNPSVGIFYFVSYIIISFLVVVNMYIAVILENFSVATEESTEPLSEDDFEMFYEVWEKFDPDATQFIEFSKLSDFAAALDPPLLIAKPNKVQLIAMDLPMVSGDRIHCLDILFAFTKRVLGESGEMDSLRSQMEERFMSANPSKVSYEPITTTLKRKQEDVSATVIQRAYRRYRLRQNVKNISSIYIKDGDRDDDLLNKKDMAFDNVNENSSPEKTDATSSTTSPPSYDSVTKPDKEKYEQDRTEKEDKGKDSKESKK
# Method: Except as indicated, recordings to determine potency of aminotriazines on Nav1.7 were made with manual electrophysiology. HEK 293 cells stably expressing hNav1.7 were voltage-clamped using the whole cell patch clamp configuration. Cells were plated onto 35 mm culture dishes 0–24 hours before recording, and tissue culture medium was exchanged for external solution containing (in mM) 140 NaCl, 5 KCl, 2 CaCl2, 1 MgCl2, 10 HEPES, 11 glucose, pH 7.4 with NaOH. Patch pipettes were pulled from borosilicate glass capillaries (1.2 mm outer diameter, World Precision Instruments, Sarasota, FL) with a P-97 pipette puller (Sutter Instruments, Novato, CA) and backfilled with internal solution containing (in mM) 62.5 CsCl, 75 CsF, 2.5 MgCl2, 5 EGTA, 10 HEPES, pH 7.25 with CsOH. Pipette resistances were between 1.5 and 2.0 MΩ. After formation of the whole-cell configuration, cells were lifted off the dish bottom with the patch pipette and positioned directly in front of a microarray of glass tubes (each tube internal diameter ~ 1 mm) with each tube containing continuously flowing control or test solution. A full current-voltage relation was recorded from each cell, and cells with poor space clamp as indicated by discontinuous I-V relation or by prolonged or nonexponential current kinetics were discarded. Solution switching was accomplished by moving the microarray with computer control via an RSC-160 rapid solution exchanger (Bio-Logic, Claix, France). Currents were recorded with an Axopatch 200B patch-clamp amplifier driven by pCLAMP software, filtered (4-pole Bessel) at 5 kHz during acquisition, and digitized at 20 kHz using pClamp9.2. Whole cell capacitance and series resistance were compensated at 0%- 80%, and reported voltages were uncorrected for liquid junction potentials. Recordings were made at room temperature. Concentration-response curves were taken by measuring inward Nav1.7 current every five to six seconds with a 10 ms to 20 ms depolarization to near the peak of the current-voltage relation, before and after steady-state inhibition by a given concentration of aminotriazine. For concentration response curves on partially inactivated channels, holding voltage was set to produce 20% fractional inactivation. […] Occasionally two compound concentrations were tested in parallel without resetting the voltage, if inhibition was rapid and the current level steady. […] Concentration response curves on non-inactivated channels generally were taken with multiple concentrations added in series without washoff of the previous concentration.
# [2] = tested on: rat formalin model of pain; assay: Formalin test (formalin-induced flinching); type: in vivo; conditions: for Decrease in formalin flinching: phase 2 (10 to 40 min), percent of vehicle; for Reduction in formalin flinching, result in words: rat formalin test
# Method: Formalin-induced flinching was measured using the Automated Nociception Analyzer (ANA) (University Anesthesia Research & Development Group, La Jolla, CA). Rats were habituated to the ANA testing chambers for at least 30 minutes prior to the formalin injection. At test time, each rat was removed from the testing chamber and gently wrapped in a towel. 50 μL of 2.5% formalin solution was injected into the dorsal surface of the left hind paw with a 30 gauge needle. A small metal band was then affixed to the plantar side of the injected paw with one drop of super glue. The animal was then unwrapped from the towel, placed back in the testing chamber, and flinching behavior was scored for 40 minutes by the ANA software. While minimized, non-painful paw movement from the natural activity of an alert animal could be erroneously binned by the automated recording system as a nociceptive behavior. These behaviors are not subtracted from the flinching total. […] Total flinching behavior was used as the endpoint of the assay.
# [3] = Terminal plasma and brain concentrations after behavioral testing; type: in vivo, rat
# rat Nav1.7 = rat Nav1.7 (Rattus norvegicus, UniProt O08562); assay: PatchXpress automated electrophysiology on rat Nav1.7; type: cell-based; conditions: 20%-inactivated rat Nav1.7
# Sequence of rat Nav1.7 (O08562 whole entry): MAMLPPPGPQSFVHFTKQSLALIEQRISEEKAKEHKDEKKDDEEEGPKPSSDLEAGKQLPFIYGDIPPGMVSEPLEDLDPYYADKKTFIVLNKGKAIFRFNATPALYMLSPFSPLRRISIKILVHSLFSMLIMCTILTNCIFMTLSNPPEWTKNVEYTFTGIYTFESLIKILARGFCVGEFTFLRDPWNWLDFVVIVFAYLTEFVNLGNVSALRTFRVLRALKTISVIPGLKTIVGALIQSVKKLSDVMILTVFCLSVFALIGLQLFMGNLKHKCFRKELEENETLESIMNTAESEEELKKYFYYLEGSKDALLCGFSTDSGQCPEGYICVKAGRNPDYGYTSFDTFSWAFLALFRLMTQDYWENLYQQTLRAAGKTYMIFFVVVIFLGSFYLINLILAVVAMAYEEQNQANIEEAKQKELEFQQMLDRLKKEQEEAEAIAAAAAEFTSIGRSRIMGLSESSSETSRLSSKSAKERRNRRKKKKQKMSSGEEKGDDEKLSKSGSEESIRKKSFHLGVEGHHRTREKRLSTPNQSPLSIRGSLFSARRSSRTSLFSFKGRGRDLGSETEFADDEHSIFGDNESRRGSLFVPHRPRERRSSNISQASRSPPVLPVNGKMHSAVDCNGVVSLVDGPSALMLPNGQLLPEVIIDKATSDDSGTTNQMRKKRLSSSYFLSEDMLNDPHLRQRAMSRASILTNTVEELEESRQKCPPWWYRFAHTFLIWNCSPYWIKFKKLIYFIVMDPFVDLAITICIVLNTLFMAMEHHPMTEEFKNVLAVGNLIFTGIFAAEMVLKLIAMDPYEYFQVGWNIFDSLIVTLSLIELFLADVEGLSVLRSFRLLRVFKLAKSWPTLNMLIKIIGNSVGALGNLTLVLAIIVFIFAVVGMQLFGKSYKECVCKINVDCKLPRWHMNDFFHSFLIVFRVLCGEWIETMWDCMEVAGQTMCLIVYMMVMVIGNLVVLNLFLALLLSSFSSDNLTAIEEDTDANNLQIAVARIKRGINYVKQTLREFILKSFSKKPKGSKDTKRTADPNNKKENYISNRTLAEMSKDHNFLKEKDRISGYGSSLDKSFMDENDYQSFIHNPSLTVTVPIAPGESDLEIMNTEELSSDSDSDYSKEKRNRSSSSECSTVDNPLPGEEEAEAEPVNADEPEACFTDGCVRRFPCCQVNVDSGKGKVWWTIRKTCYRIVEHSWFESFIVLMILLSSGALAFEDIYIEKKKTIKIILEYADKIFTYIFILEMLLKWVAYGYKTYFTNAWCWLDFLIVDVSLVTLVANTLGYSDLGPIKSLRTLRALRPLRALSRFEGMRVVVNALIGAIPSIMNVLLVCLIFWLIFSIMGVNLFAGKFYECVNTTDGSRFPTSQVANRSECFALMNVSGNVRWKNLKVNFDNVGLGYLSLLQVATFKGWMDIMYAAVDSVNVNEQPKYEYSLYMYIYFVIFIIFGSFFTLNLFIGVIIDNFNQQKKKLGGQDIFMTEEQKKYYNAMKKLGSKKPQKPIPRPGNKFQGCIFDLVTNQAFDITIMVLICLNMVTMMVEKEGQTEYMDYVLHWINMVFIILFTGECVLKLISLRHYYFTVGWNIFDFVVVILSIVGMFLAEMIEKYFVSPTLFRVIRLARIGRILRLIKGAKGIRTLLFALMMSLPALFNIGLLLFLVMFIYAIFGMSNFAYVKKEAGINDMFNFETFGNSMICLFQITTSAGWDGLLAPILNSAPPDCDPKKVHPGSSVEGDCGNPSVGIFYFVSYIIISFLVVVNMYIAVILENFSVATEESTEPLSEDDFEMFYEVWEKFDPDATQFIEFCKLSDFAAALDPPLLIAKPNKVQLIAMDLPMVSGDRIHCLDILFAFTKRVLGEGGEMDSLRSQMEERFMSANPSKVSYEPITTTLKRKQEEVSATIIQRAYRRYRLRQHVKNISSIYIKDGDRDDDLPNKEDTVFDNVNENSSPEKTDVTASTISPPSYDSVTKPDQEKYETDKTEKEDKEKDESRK
# [4] = tested on: rat spinal nerve ligation model; assay: Tactile allodynia following spinal nerve ligation (SNL); type: in vivo; conditions: gabapentin positive control, 75 min after dosing; statistically significant
# Excerpt: A decrease in tactile response threshold, using calibrated von Frey filaments (Stoelting Co., Wood Dale, IL), was used as a measure of tactile allodynia following spinal nerve ligation (SNL). Prior to surgery, each animal underwent baseline testing to determine suitability for the assay. Briefly, animals were placed on a raised platform with a grid meshed floor. The distance between the mesh was ¼”. Once acclimated, each animal received a series of trials according to the up-down method described by Dixon. Animals showing a response to less than 4 g were deemed already sensitive to the stimulus and were removed. A maximal fiber of 15 g was employed as a cut-off threshold. Surgery was then performed with a procedure slightly modified by that reported by Kim and Chung. Briefly, the left L5 spinal nerve was carefully isolated from the surrounding tissue. Using 5–0 silk suture, a tight ligature was placed around L5 nerve. Muscle and skin were then closed using 4–0 absorbable suture and wound clips. Animals were allowed to recover and were carefully monitored for seven days to ensure proper healing and ensure there was no mutilation of the affected limb. On day 21 post-surgery, animals were again tested to ensure the development of tactile allodynia. […] Animals were then randomized into groups and dosed with the test compound, gabapentin, or vehicle and assessed as stated above. […]
# rat CFA model of pain = assay: CFA-induced thermal hyperalgesia; type: in vivo; conditions: morphine s.c., 30 min after dosing, positive control
# Method: CFA-induced thermal hyperalgesia was measured using the Thermal Plantar Analgesia Instrument (Ugo Basile, Italy). Intensity of the radiant heat stimulus was adjusted to achieve a withdrawal latency of approximately 13 s in naïve animals. On test day one, animals were placed on the apparatus in their individual testing chambers with an absorbent towel at the bottom and allowed to habituate for at least 30 minutes. The towel was then removed and animals were allowed to acclimate for at least 15 minutes more. After habituation, animals were placed back in their home cages until the following day. On test day two, animals were placed back in the testing chambers until calm (typically 20 minutes). The thermal device was positioned on the center of the left hind paw and the test was started. The time for the animal to withdraw its paw from the thermal stimulus was recorded. A cut-off of 30 seconds was used to prevent tissue damage. Few trials went past 20 seconds and none past 25 seconds. This procedure was repeated for three trials per animal, each separated by at least 5 min, and trials were averaged to determine baseline withdrawal latencies. After determining baseline measures, each animal received an injection of 50 μl CFA (1:1 emulsion with PBS, Sigma, St. Louis, MO) into the plantar side of the left hind paw with a 26 gauge needle. Animals were then placed back in their home cages until the following day. Approximately 24 h after the CFA injection, withdrawal latencies to heat were determined as described above. Animals were then randomized based on their Post-CFA baseline score and treated with the test compound or vehicle. […] The experimenter was blinded to drug treatment during this assay. Percent return to baseline latency was used as the endpoint of the assay.
Structure (SMILES),"Decrease in basic movement (naïve rats; 10 mg/kg p.o., negative value = increase) [%]",Decrease in basic movement (naïve rats; 30 mg/kg p.o.) [%],Decrease in basic movement (naïve rats; 100 mg/kg p.o.) [%],fraction unbound [1],"IC50 (hNav1.7; IC50 (μM) 20%-inactivated, 20%-inactivated human Nav1.7, holding voltage set to produce 20% fractional inactivation) [µM]","IC50 (hNav1.7; non-inactivated human Nav1.7, holding voltage -140 mV or occasionally -120 mV, peak concentration tested 10 μM, read-out: IC50 (μM) Non-inactivated) [µM]",Decrease in formalin flinching ([2]; 10 mg/kg p.o.) [%],Decrease in formalin flinching ([2]; 30 mg/kg p.o.) [%],Decrease in formalin flinching ([2]; 100 mg/kg p.o.) [%],"Analgesic efficacy ([2]; rat formalin model, significant (p < 0.05) decrease in flinching at a dose without a reduction in open field movement that obviated the result)","Reduction in formalin flinching, result in words [2]","Kp ([3]; brain and plasma, rat, ratio of concentrations measured following the formalin test)",Effective [plasma] ([3]; mean terminal plasma concentration at the lowest effective dose in the rat formalin test) [µM],IC50 (rat Nav1.7) [nM],Reversal of tactile allodynia compared to the vehicle group [4] [%],"Total reduction in phase 2 flinching as percent of vehicle ([2]; morphine 2 mg/kg s.c., positive control) [%]",Average reversal of thermal hyperalgesia compared to baseline (rat CFA model of pain) [%]
"CC(=O)Nc1cccc(Nc2ncnc(N3CCc4cc(OC(F)(F)F)ccc4C3)n2)c1 [Compound F, N-(3-((4-(6-(trifluoromethoxy)-3,4-dihydro-2(1H)-isoquinolinyl)-1,3,5-triazin-2-yl)amino)phenyl)acetamide]",11,33,54,0.001,0.18,> 10,0,35,67,Yes,statistically significant and plasma concentration-dependent reduction in formalin flinching,0.33,3.70,1000,–,–,–
"NCC1(CC(=O)O)CCCCC1 [gabapentin, reference compound]",–,–,–,–,–,–,–,–,–,–,–,–,–,–,44,–,–
"CN1CC[C@]23c4c5ccc(O)c4O[C@H]2[C@@H](O)C=C[C@H]3[C@H]1C5 [morphine, Morphine sulfate, reference compound]",–,–,–,–,–,–,–,–,–,–,statistically significant decrease in flinching compared to the vehicle group,–,–,–,–,68,87
